In ChEMBL document CHEMBL1136944, “Serratezomines D and E, new Lycopodium alkaloids from Lycopodium serratum var. serratum” (Bioorg Med Chem Lett, 2009):
Calls of active or inactive are those of the source. The calls are words filed in the database; no cut-off is given here.

What was measured:
Acetylcholinesterase = Acetylcholinesterase (Electrophorus electricus, UniProt O42275); assay: (§1) Inhibition of Electrophorus electricus acetylcholinesterase by rapid colorimetric determination
[1] = target: Acetylcholinesterase (Electrophorus electricus) (UniProt O42275); assay: as §1
Sequence of Acetylcholinesterase (Electrophorus electricus) (O42275 24-633 limits assumed): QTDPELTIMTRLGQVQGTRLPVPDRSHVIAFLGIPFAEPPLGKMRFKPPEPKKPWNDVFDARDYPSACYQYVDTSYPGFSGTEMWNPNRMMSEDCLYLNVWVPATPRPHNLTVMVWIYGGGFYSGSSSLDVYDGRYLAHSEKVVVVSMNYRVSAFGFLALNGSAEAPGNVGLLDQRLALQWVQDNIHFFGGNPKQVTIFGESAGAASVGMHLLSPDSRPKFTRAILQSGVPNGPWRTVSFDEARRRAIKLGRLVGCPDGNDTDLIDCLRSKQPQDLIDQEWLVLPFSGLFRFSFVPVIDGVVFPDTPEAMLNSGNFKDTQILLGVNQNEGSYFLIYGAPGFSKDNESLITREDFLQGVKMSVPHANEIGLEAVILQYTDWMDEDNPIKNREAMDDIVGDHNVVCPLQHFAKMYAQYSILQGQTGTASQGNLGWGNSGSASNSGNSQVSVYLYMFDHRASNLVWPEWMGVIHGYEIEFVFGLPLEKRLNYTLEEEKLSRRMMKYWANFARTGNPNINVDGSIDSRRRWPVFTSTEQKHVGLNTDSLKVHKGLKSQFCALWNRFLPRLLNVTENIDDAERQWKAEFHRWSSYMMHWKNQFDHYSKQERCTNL

Sequence of Acetylcholinesterase (O42275 whole entry): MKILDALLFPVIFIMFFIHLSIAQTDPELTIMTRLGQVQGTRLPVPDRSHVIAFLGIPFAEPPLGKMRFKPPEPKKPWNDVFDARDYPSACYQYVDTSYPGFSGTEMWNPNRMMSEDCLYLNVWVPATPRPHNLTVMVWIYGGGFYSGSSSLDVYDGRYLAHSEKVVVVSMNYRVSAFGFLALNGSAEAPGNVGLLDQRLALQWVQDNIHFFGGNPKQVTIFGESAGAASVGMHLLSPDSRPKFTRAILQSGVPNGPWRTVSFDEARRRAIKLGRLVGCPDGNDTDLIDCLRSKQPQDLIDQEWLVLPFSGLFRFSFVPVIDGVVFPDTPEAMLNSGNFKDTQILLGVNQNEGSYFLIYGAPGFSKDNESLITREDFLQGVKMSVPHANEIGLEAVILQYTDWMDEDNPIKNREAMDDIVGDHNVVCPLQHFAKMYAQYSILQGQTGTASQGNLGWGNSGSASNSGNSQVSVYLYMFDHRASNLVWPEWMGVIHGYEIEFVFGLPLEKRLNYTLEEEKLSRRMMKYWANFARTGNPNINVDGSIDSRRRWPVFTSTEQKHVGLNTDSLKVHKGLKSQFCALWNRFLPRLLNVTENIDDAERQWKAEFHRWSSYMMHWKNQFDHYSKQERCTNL

SMILES | IC50 (Acetylcholinesterase) [µM] | Activity [1]
C[C@@H]1C[C@@H]2C[C@H]3N[C@H](C[C@H]4C[C@@H](C)C[C@@H]5[C@@H]4CCCN5C=O)CC[C@@H]3[C@H]3C[C@H]2[C@@H](C1)N(C)C3 [SERRATEZOMINE D] | 600 | 
CC(=O)N1CCC[C@@H]2[C@@H](C[C@H]3CC[C@@H]4[C@H]5C[C@@H]6[C@@H](C[C@@H](C)C[C@@H]6N(C)C5)C[C@H]4N3)C[C@H](C)C[C@@H]21 |  | inactive
CC(=O)N1CCC[C@H]2[C@@H](C[C@@H]3CC[C@@H]4[C@@H]5C[C@@H]6[C@@H](C[C@@H](C)C[C@@H]6N(C)C5)C[C@H]4N3)C[C@H](C)C[C@H]21 |  | inactive
CC(=O)N1CCC[C@H]2[C@@H](C[C@H]3CC[C@]4(O)[C@@H]5C[C@@H]6[C@@H](C[C@@H](C)C[C@@H]6N(C)C5)C[C@H]4N3)C[C@H](C)C[C@H]21 |  | inactive
